Here are results for 2 molecules from patent US20240285770A1, “PRECIPITATION SUPPRESSING AGENT” (Nippon Shinyaku Co., Ltd., priority 2021, published 2024).

Data set [1] in a line: Precipitation suppression with sucrose: absorbance at 620 nm of antisense oligomer in KCl/NaCl solution assumed to be in urine. It counts as physicochemical. On the procedure:
The presence or absence of the precipitation suppressing effects can be determined by adding the antisense oligomer and the precipitation suppressing agent in a solvent simulating urine and examining as described in Examples whether or not the precipitation suppressing agent reduces an increase in absorbance caused by precipitation of the antisense oligomer. For example, after the antisense oligomer and the precipitation suppressing agent are added to the solvent (e.g., 5 minutes later, 10 minutes later, 15 minutes later, 20 minutes later, 25 minutes later, 30 minutes later, 40 minutes later, 50 minutes later, 60 minutes later, 70 minutes later, 80 minutes later, or 90 minutes later), the absorbance can be determined under the conditions of 37° C. At this time, compared to a case of adding no precipitation suppressing agent, it can be determined to be effective in suppressing precipitation when a time until the precipitation is observed (until the increased absorbance at 620 nm is observed) or the absorbance at 620 nm are reduced, for example, by 5% or more, 10% or more, 20% or more, 30% or more, 40% or more, or 50% or more in the case of adding the precipitation suppressing agent. […] The absorbance at 620 nm of the solution thus mixed was measured using a plate reader, Infinite F200 Pro (manufactured by Tecan Group Ltd.) under heating conditions of 37° C. […]

Data set [2] has as its system kidney. It counts as in vivo, C57BL/6J male mice. The following applies: sucrose 200 mg/mL co-administered with PMO No. 11 130 mg/mL, 20 mL/kg tail vein, mice. On the procedure: The antisense oligomer of PMO No. 11 was dissolved in physiological saline to prepare a control dosing solution comprising the antisense oligomer at the concentration shown in Table 14 and comprising no sucrose. Next, the antisense oligomer of PMO No. 11 and sucrose were dissolved in physiological saline to prepare dosing solutions comprising the antisense oligomer and sucrose at the concentrations shown in Table 14. The obtained dosing solutions were administered into the tail vein of 6-week-old C57BL/6J male mice (N=5) at 20 mL/kg. Next day, the mice were subjected to autopsy, and formalin-fixed paraffin-embedded samples of the respective kidneys were prepared. Sections obtained by slicing the samples were subjected to hematoxylin-eosin staining and a histopathological test of the sections was performed. Compared to the mice to which the control dosing solution comprising no sucrose has been administered, it was determined that the precipitation was suppressed in a case where there was improvement in the findings on the histopathological test of the kidney of the mice to which the dosing solution comprising sucrose has been administered.

In data set [3] the test system is kidney. It counts as in vivo, C57BL/6J male mice. The following applies: sucrose 20 to 100 mg/mL co-administered with PMO No. 8 50 mg/mL, 10 mL/kg tail vein, mice. On the procedure: The antisense oligomer of PMO No. 8 was dissolved in water for injection comprising 0.9% sodium chloride, and a solution obtained by dissolving sucrose (manufactured by FUJIFILM Wako Pure Chemical Corporation) with physiological saline was added thereto to prepare a dosing solution comprising each of the antisense oligomer and sucrose at the concentrations shown in Tables 12 and 13. The obtained dosing solutions were administered into the tail vein of 6-week-old C57BL/6J male mice (N=3) at the amount of dosing solution shown in Table 12 (10 mL/kg). Next day, some mice to which the antisense oligomer of PMO No. 8 had been administered were subjected to autopsy, and formalin-fixed paraffin-embedded samples of the respective kidneys were prepared. Sections obtained by slicing the samples were subjected to hematoxylin-eosin staining and a histopathological test of the sections was performed.

The nature of data set [4]: Precipitation suppression with trehalose: absorbance at 620 nm of antisense oligomer in KCl/NaCl solution assumed to be in urine. It counts as physicochemical. The following applies: Example 7: trehalose 45 to 180 mg/mL with PMO Nos. 1, 2, 7, and 8, 37° C., Tables 18 to 21. As to the method:
The presence or absence of the precipitation suppressing effects can be determined by adding the antisense oligomer and the precipitation suppressing agent in a solvent simulating urine and examining as described in Examples whether or not the precipitation suppressing agent reduces an increase in absorbance caused by precipitation of the antisense oligomer. For example, after the antisense oligomer and the precipitation suppressing agent are added to the solvent (e.g., 5 minutes later, 10 minutes later, 15 minutes later, 20 minutes later, 25 minutes later, 30 minutes later, 40 minutes later, 50 minutes later, 60 minutes later, 70 minutes later, 80 minutes later, or 90 minutes later), the absorbance can be determined under the conditions of 37° C. At this time, compared to a case of adding no precipitation suppressing agent, it can be determined to be effective in suppressing precipitation when a time until the precipitation is observed (until the increased absorbance at 620 nm is observed) or the absorbance at 620 nm are reduced, for example, by 5% or more, 10% or more, 20% or more, 30% or more, 40% or more, or 50% or more in the case of adding the precipitation suppressing agent. […]

Regarding `OC[C@H]1O[C@@](CO)(O[C@H]2O[C@H](CO)[C@@H](O)[C@H](O)[C@H]2O)[C@@H](O)[C@@H]1O` [sucrose], the “precipitation suppressing effect on antisense oligomers” value is on record as “suppress the precipitation of antisense oligomers” in data set [1] (Example 3: sucrose 45 to 270 mg/mL with PMO Nos. 8, 9, 10, 11, KCl and NaCl, 37° C., Tables 4 to 11); “suppress the precipitation of antisense oligomers” in data set [1] (Example 6: sucrose 45 to 135 mg/mL with PMO Nos. 1, 2, and 7, 37° C., Tables 15 to 17). Also, the “precipitation suppression in kidney (improvement in findings on histopathological test)” value in data set [2] is listed as “confirmed to suppress precipitation”. For the same molecule, the “precipitation suppressing effect in kidney (amount of precipitates, basophilic substances in lumens of renal tubules)” value in data set [3] is recorded as “amount of precipitates decreased according to the concentrations of sucrose”.

Regarding `OC[C@H]1O[C@H](O[C@H]2O[C@H](CO)[C@@H](O)[C@H](O)[C@H]2O)[C@H](O)[C@@H](O)[C@@H]1O` [trehalose], the “precipitation suppressing effect on antisense oligomers” value in data set [4] is reported as “suppress the precipitation of antisense oligomers”.
